Where “and” joins values, the source holds several entries; their conditions need not be identical. Equal entries are not always repeated. Entries after “also recorded” stand apart in the source; their conditions may differ.
Experiments:
[1] = test system: Tg(APPSWE)2576KhaTg(Prnp-MAPT*P301L)JNPL3HImc Alzheimer's disease model double transgenic mice; experiment: Number of nerve cells having AT8 immunostaining-positive neurofibrillary tangles in Alzheimer's disease model double transgenic mice; type: in vivo, mouse
[2] = test system: Tg(APPSWE)2576KhaTg(Prnp-MAPT*P301L)JNPL3HImc Alzheimer's disease model double transgenic mice; experiment: Number and size of senile plaques in cerebrum coronal cut surfaces of Alzheimer's disease model double transgenic mice (HE, Aβ40, Aβ42 staining); type: in vivo, mouse
[3] = individual mouse, 5 mg/kg oral every day from one year old, sampled at 730 to 745 days old, 5 mg/kg
[4] = individual mouse, diameter 50 μm or smaller, 5 mg/kg oral every day from one year old, sampled at 730 to 745 days old, 5 mg/kg
[5] = individual mouse, diameter 100 μm or larger, 5 mg/kg oral every day from one year old, sampled at 730 to 745 days old, 5 mg/kg
[6] = individual mouse, diameter between 50 μm and 100 μm, 5 mg/kg oral every day from one year old, sampled at 730 to 745 days old, 5 mg/kg

For N#Cc1cc(-c2nc3c(O)ncnc3s2)ccc1Oc1ccccc1 [compound A, 5-(7-hydroxythiazolo[5,4-d]pyrimidin-2-yl)-2-phenoxy-benzonitrile], the “Tangle number as percentage of that of the control group” value ([1]; FIG. 10, 5 mg/kg oral daily) was 36%, the “Number of nerve cells having AT8 immunostaining-positive neurofibrillary tangles per one cerebrum coronal cut surface” value ([1]; group average±standard deviation, 4 mice, 5 mg/kg oral daily about one year, control 209.9±46.0) was 77.0±67.1 and the “Number of nerve cells having AT8 immunostaining-positive neurofibrillary tangles, amygdaloid nucleus maximum diameter coronal cut surface” value [1, 3] was 103 and 175 and 13 and 18. The “Number of nerve cells having AT8 immunostaining-positive neurofibrillary tangles, hypothalamus coronal cut surface” value [1, 3] was 149 and 119 and 26 and 13, the “Number of nerve cells having AT8 immunostaining-positive neurofibrillary tangles compared with the control group” value ([1]; p=0.016, Mann-Whitney U test, amygdaloid nucleus and hypothalamus, 5 mg/kg oral daily, FIG. 9, 10, 5 mg/kg) was “significantly smaller; also recorded: markedly suppresses; also recorded: fewer; also recorded: significantly lower” and the “Large-sized senile plaques in the hippocampus compared with placebo control group (photographs)” value ([2]; HE staining, Aβ40 and Aβ42 immunostaining, FIG. 6 vs FIG. 5) was “clearly fewer”. The “Number of large-sized senile plaques per one cerebrum coronal cut surface” value ([2]; group average±standard deviation, 4 mice, 5 mg/kg oral daily about one year, control 26.9±12.3) was 11.1±5.9, the “Number of medium-sized senile plaques per one cerebrum coronal cut surface” value ([2]; group average±standard deviation, 4 mice, 5 mg/kg oral daily about one year, control 44.3±14.5) was 30.9±20.5 and the “Number of small-sized senile plaques per one cerebrum coronal cut surface” value ([2]; group average±standard deviation, 4 mice, 5 mg/kg oral daily about one year, control 88.3±35.2) was 104.4±36.8. The “Number of small senile plaques, entorhinal cortex coronal cut surface” value [2, 4] was 96 and 78 and 110 and 164, the “Number of small senile plaques, mammillary body coronal cut surface” value [2, 4] was 113 and 38 and 106 and 130 and the “Number of large-sized senile plaques, entorhinal cortex coronal cut surface” value [2, 5] was 16 and 10 and 11 and 2. The “Number of large-sized senile plaques, mammillary body coronal cut surface” value [2, 5] was 21 and 12 and 5, the “Number of medium-sized senile plaques, entorhinal cortex coronal cut surface” value [2, 6] was 78 and 24 and 31 and 14 and the “Number of medium-sized senile plaques, mammillary body coronal cut surface” value [2, 6] was 33 and 12 and 25 and 30. For the same molecule, the “Number of large-sized senile plaques compared with the control group” value ([2]; p=0.013, Mann-Whitney U test, 5 mg/kg oral daily, FIG. 7, 5 mg/kg) was “significantly smaller; also recorded: significantly suppresses; also recorded: especially suppressed”, the “Number of medium-sized senile plaques compared with the control group” value ([2]; p=0.036, Mann-Whitney U test, 5 mg/kg oral daily, FIG. 7, 5 mg/kg) was “significantly smaller; also recorded: significantly suppresses; also recorded: especially suppressed” and the “Number of small senile plaques compared with the control group” value ([2]; p=0.400, Mann-Whitney U test, 5 mg/kg oral daily, FIG. 7) was “Any significant difference was not observed”.

Source: patent US20180117047A1, “DRUG FOR PREVENTING AND/OR TREATING DEMENTIA” (NATIONAL UNIVERSITY CORPORATION TOTTORI UNIVERSITY, priority 2015, published 2018)
